# Read-outs that look alike come from different tables or passages of the source.
# Test: Acute toxicity, intraperitoneal administration (mortality, LD50, body weight, dietary)
# Format: in vivo, mice
# Conditions: both sexes, mouse, in vivo, ip, mice, i.p., observed 7 days
# Procedure: Acute Toxicity • Compounds PDHM/TDHM.
# 140 mice were divided into 7 groups (n=20), each group include 10 males and 10 females, they were treated with different concentrations of dosages and observed for 7 days. Specific experimental groups and experimental results were noted below. Note: Section 1-6 group compound are PDHM groups, and group 7 is a negative control group.
# 140 mice were divided into 7 groups (n=20), each group include 10 males and 10 females, they were treated with different concentrations of dosage and observed for 7 days. Note: Section 1-6 group compound are PDHM groups, and group 7 is a negative control group.
smiles,measurement,setting,value
"O=C1c2c(O)cc(O)cc2O[C@H](c2cc(O)c(O)c(O)c2)[C@H]1O [PDHM, piperidinium 2,3-dihydroxy-5-((2R,3R)-3,5,7-trihydroxy-4-oxochroman-2-yl)phenolate]",LD50 at 7 days,read-out: 95% confidence limit of LD50,743 to 755 mg/kg
same,LD50 at 7 days,read-out: LD50,902 mg/kg
